According to PubChem BioAssay AID2060499 (Molecular Pharmacology Branch, DTP, NCI, 2025):

Test system: 777334-354-R2-J4-PDC tumor spheroids with HUVEC/MSC, viability
Test: Anticancer human tumor 777334-354-R2-J4-PDC patient-derived pancreatic adenocarcinoma cell line growth inhibition [GQUAD]
Conditions: for IC50: curve of first compound; for viability, T/C: stronger effect = lower value
Description: DNA G-quadruplex Stabilizer Agents in Combinations in Complex Spheroids
A high-throughput screen of multi-cell type tumor spheroids was designed to identify active combinations of DNA G-quadruplex stabilizer agents and targeted small molecules. Complex spheroids include a stromal component modeled by human endothelial cells (HUVEC) and fibroblasts modeled by human mesenchymal stem cells (MSCs). The concentration ranges selected for each drug and investigational agent were based upon clinically achievable concentrations if the clinical Cmax of the agent was known.
Compounds. The drugs and investigational agents: pidnarulex (CX-5461; NSC782164), APTO-253 (NSC789042), BRACO-19 (NSC847499), peposertib (NSC802822), ceralasertib (NSC780249), elimusertib (NSC800525), camonsertib (NSC841442), AZD-1390 (NSC803789), olaparib (NSC753686), talazoparib (NSC767125), ART-558 (NSC835418), sotorasib (NSC818433), MRTX-1133 (NSC836407), SN-38 (NSC673596), topotecan (NSC609699), etoposide (NSC141540), doxorubicin (NSC123127), gemcitabine (NSC613327), 5-fluorouracil (NSC19893), paclitaxel (NSC125973), vemurafenib (NSC761431), panobinostat (NSC761190), R-306465 (JNJ-16241199; NSC773264), adavosertib (NSC754352), TP-3654 (NSC805149), carboplatin (NSC241240), KSQ-4279 (NSC840948), and staurosporine (NSC755774) were obtained from the National Cancer Institute (NCI) Developmental Therapeutics Program Chemical Repository (34). The FDA-approved anticancer drug set is available from the NCI Developmental Therapeutics Program. […] The stock solutions were prepared in dimethyl sulfoxide (DMSO, Sigma-Aldrich, St. Louis, MO, cat. D2650) at 800-fold the tested concentration and stored at -70 degrees C prior to their use. All drugs and investigational agents were tested over a range starting from a high concentration at or near the clinical Cmax and decreasing in half-log increments. If the clinical Cmax for an agent had not been determined, the highest concentration tested was 10 microM.
2.3 Cell Culture. All cells were maintained in an incubator at 37 degrees C and 5% CO2 with 95% humidity. The PDC lines were cultured according to standard operating procedures established by the NCI PDMR. All PDCs were thawed and cultured in Matrigel-coated flasks prepared with a working solution of 1X Ham's F-12 nutrient mix, without supplementation (Invitrogen, cat. 11765054), 100 U/mL penicillin-streptomycin (Invitrogen, cat. 15140122), and 2.5% Matrigel (Corning Inc., cat. 354248) for the first three passages. The 857933-349-R-J2-PDC line was cultured in 6C/Colon 1B media, which includes advanced DMEM/F-12 (Thermo Fisher Scientific, cat. 12634028), 10 mM HEPES (Thermo Fisher Scientific, cat. 15630080), 1X GlutaMAX supplement (Thermo Fisher Scientific, cat. 35050061), 0.1 mg/mL primocin (InvivoGen, cat. ant-pm-2), 10% defined fetal bovine serum, heat inactivated (HyClone Laboratories Inc., cat. SH30070.03HI), 50% L-WRN conditioned media (ATCC, cat. CRL-3276), 1.25 mM N-Acetyl-L-cysteine (Sigma-Aldrich, cat. A9165), 10 mM nicotinamide (Sigma-Aldrich, cat. N0636), 1X B-27 supplement (Thermo Fisher Scientific, cat. 17504044), 1X N-2 supplement (Thermo Fisher Scientific, cat. 17502048), 10 microM Y-27632 dihydrochloride (Tocris Bioscience, cat. 1254), and 50 ng/mL human EGF recombinant protein (Thermo Fisher Scientific, cat. PHG0311). The 485176-168-R4-J1-PDC line was cultured in Panc media, which includes all 6C/Colon 1B media components plus 100 ng/mL human FGF-10 (Thermo Fisher Scientific, cat. 100-26), 500 nM SB-431542 (Selleckchem, cat. S1067), and gastrin (Tocris, cat. 3006).
[…]

[1] = second compound 0.0316 µM, first compound 0.0316 µM
[2] = second compound 0.0316 µM, first compound 0.316 µM
[3] = second compound 0.1 µM, first compound 0.0316 µM
[4] = second compound 0.1 µM, first compound 0.316 µM
[5] = second compound 0.316 µM, first compound 0.0316 µM
[6] = second compound 0.316 µM, first compound 0.316 µM
[7] = second compound 1 µM, first compound 0.0316 µM
[8] = second compound 1 µM, first compound 0.316 µM
[9] = second compound 3.16 µM, first compound 0.0316 µM
[10] = second compound 3.16 µM, first compound 0.316 µM
[11] = second compound 10 µM, first compound 0.0316 µM
[12] = second compound 10 µM, first compound 0.316 µM
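Also: spheroids exposed to compounds for 7 days before readout.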

Work on COc1cccc2c1C(=O)c1c(O)c3c(c(O)c1C2=O)CC(O)(C(=O)CO)CC3OC1CC(N)C(O)C(C)O1 (centres undefined) + Cc1cnc(CNC(=O)c2c(=O)c3ccc(N4CCCN(C)CC4)nc3n3c2sc2ccccc23)cn1 yielded an IC50 (second compound 0.0316 µM) of 878 nM, an IC50 (second compound 0.1 µM) of 769 nM and an IC50 (second compound 0.316 µM) of 1040 nM. The IC50 (second compound 1 µM) was 869 nM, the IC50 (second compound 3.16 µM) was 684 nM and the IC50 (second compound 10 µM) was 399 nM. It also gave a viability, T/C [1] of 88.3%, a viability, T/C (second compound 0.0316 µM, first compound 0.1 µM) of 87.2% and a viability, T/C [2] of 81.8%. For the same compound, the viability, T/C (second compound 0.0316 µM, first compound 1 µM) was 44.3%, the viability, T/C (second compound 0.0316 µM, first compound 3.16 µM) was 23.4% and the viability, T/C (second compound 0.0316 µM, first compound 10 µM) was 11.9%. For the same compound, the viability, T/C [3] was 83.8%, the viability, T/C (second compound 0.1 µM, first compound 0.1 µM) was 77.2% and the viability, T/C [4] was 76.8%. For the same compound, the viability, T/C (second compound 0.1 µM, first compound 1 µM) was 40.7%, the viability, T/C (second compound 0.1 µM, first compound 3.16 µM) was 22.5% and the viability, T/C (second compound 0.1 µM, first compound 10 µM) was 10.7%. The viability, T/C [5] was 73.5%, the viability, T/C (second compound 0.316 µM, first compound 0.1 µM) was 80.8% and the viability, T/C [6] was 63.3%. It also gave a viability, T/C (second compound 0.316 µM, first compound 1 µM) of 52.1%, a viability, T/C (second compound 0.316 µM, first compound 3.16 µM) of 26.3% and a viability, T/C (second compound 0.316 µM, first compound 10 µM) of 6.61%. It also gave a viability, T/C [7] of 63%, a viability, T/C (second compound 1 µM, first compound 0.1 µM) of 70.4% and a viability, T/C [8] of 67.3%. The viability, T/C (second compound 1 µM, first compound 1 µM) was 45.4%, the viability, T/C (second compound 1 µM, first compound 3.16 µM) was 21.8% and the viability, T/C (second compound 1 µM, first compound 10 µM) was 4.42%. For the same compound, the viability, T/C [9] was 64.2%, the viability, T/C (second compound 3.16 µM, first compound 0.1 µM) was 64.1% and the viability, T/C [10] was 68%. For the same compound, the viability, T/C (second compound 3.16 µM, first compound 1 µM) was 40.9%, the viability, T/C (second compound 3.16 µM, first compound 3.16 µM) was 16% and the viability, T/C (second compound 3.16 µM, first compound 10 µM) was 0.58%. The viability, T/C [11] was 57.3%, the viability, T/C (second compound 10 µM, first compound 0.1 µM) was 55.8% and the viability, T/C [12] was 55.8%. The viability, T/C (second compound 10 µM, first compound 1 µM) was 35.3%, the viability, T/C (second compound 10 µM, first compound 3.16 µM) was 11.9% and the viability, T/C (second compound 10 µM, first compound 10 µM) was 0.28%.

Cn1ncnc1[C@H]1c2n[nH]c(=O)c3cc(F)cc(c23)N[C@@H]1c1ccc(F)cc1 + Cc1cnc(CNC(=O)c2c(=O)c3ccc(N4CCCN(C)CC4)nc3n3c2sc2ccccc23)cn1 gave an IC50 (second compound 0.0316 µM) greater than 316 nM, an IC50 (second compound 0.1 µM) greater than 316 nM and an IC50 (second compound 0.316 µM) greater than 316 nM. For the same compound, the IC50 (second compound 1 µM) was greater than 316 nM, the IC50 (second compound 3.16 µM) was greater than 316 nM and the IC50 (second compound 10 µM) was greater than 316 nM. The viability, T/C (second compound 0.0316 µM, first compound 0.000999 µM) was 97.7%, the viability, T/C (second compound 0.0316 µM, first compound 0.00316 µM) was 86.3% and the viability, T/C (second compound 0.0316 µM, first compound 0.00999 µM) was 96.8%. It also gave a viability, T/C [1] of 95%, a viability, T/C (second compound 0.0316 µM, first compound 0.0999 µM) of 104% and a viability, T/C [2] of 88%. It also gave a viability, T/C (second compound 0.1 µM, first compound 0.000999 µM) of 86.4%, a viability, T/C (second compound 0.1 µM, first compound 0.00316 µM) of 72.6% and a viability, T/C (second compound 0.1 µM, first compound 0.00999 µM) of 90.8%. For the same compound, the viability, T/C [3] was 86.2%, the viability, T/C (second compound 0.1 µM, first compound 0.0999 µM) was 94.5% and the viability, T/C [4] was 78.2%. The viability, T/C (second compound 0.316 µM, first compound 0.000999 µM) was 83.7%, the viability, T/C (second compound 0.316 µM, first compound 0.00316 µM) was 81.1% and the viability, T/C (second compound 0.316 µM, first compound 0.00999 µM) was 71.9%. The viability, T/C [5] was 79.6%, the viability, T/C (second compound 0.316 µM, first compound 0.0999 µM) was 87.5% and the viability, T/C [6] was 68%. The viability, T/C (second compound 1 µM, first compound 0.000999 µM) was 77.7%, the viability, T/C (second compound 1 µM, first compound 0.00316 µM) was 74.1% and the viability, T/C (second compound 1 µM, first compound 0.00999 µM) was 64.4%. The viability, T/C [7] was 71.3%, the viability, T/C (second compound 1 µM, first compound 0.0999 µM) was 76.5% and the viability, T/C [8] was 62.5%. The viability, T/C (second compound 3.16 µM, first compound 0.000999 µM) was 60.7%, the viability, T/C (second compound 3.16 µM, first compound 0.00316 µM) was 63.8% and the viability, T/C (second compound 3.16 µM, first compound 0.00999 µM) was 57.3%. For the same compound, the viability, T/C [9] was 60.6%, the viability, T/C (second compound 3.16 µM, first compound 0.0999 µM) was 61% and the viability, T/C [10] was 54%. For the same compound, the viability, T/C (second compound 10 µM, first compound 0.000999 µM) was 52.1%, the viability, T/C (second compound 10 µM, first compound 0.00316 µM) was 58.4% and the viability, T/C (second compound 10 µM, first compound 0.00999 µM) was 58.2%. For the same compound, the viability, T/C [11] was 68.7%, the viability, T/C (second compound 10 µM, first compound 0.0999 µM) was 56.1% and the viability, T/C [12] was 51.8%.
